Test results from patent publication US20170369492A1 (Takeda Pharmaceutical Company Limited, priority 2014, published 2017).
pEC50: −log10 of the molar value.

Biological target: T1, human GPR43 (Homo sapiens, UniProt O15552)
T1 construct: expressed in transfected cells
T1 sequence (O15552 1-330): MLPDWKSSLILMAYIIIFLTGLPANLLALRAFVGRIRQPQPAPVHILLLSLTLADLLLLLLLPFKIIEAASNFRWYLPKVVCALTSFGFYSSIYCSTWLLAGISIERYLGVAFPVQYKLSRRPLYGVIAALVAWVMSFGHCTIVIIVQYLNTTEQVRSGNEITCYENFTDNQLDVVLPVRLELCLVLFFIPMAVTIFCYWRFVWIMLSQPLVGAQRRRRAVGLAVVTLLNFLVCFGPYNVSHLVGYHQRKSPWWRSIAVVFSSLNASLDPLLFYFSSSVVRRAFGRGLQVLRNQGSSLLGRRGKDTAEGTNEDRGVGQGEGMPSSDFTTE
Assay: Ca-Flux Functional Assay: Determination of Agonist/Positive Allosteric Modulator (PAM) Activity
Format: cell-based
Settings: CHO-K1 Gα16 cells stably expressing human GPR43; compound added in the presence of EC20 sodium acetate; intracellular Ca2+ by FLIPR; agonist/PAM activity not distinguished
Procedure, shortened: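 FLIPR calcium read in CHO-K1 Gα16 cells stably expressing human GPR43, loaded with Calcium 5 dye in HBSS/HEPES/probenecid/BSA for 1 h at 37 °C. Compounds were tested in 10-point half-log series from 10 μM, co-added with sodium acetate at its EC20. EC50 taken from duplicate-well curves, capturing agonist or PAM activity without distinction.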

With Nc1c(S(=O)(=O)N2CCCCC2)c2nccnc2n1C1CCCCC1 [Example 57, 5-cyclohexyl-7-(piperidin-1-ylsulfonyl)-5H-pyrrolo[2,3-b]pyrazin-6-amine] as the compound, how does the pEC50 read?
Its pEC50 is 6.59.

COC1CCN(S(=O)(=O)c2c(N)n(C3CCCCC3)c3nccnc23)CC1 [Example 73, 5-cyclohexyl-7-(4-methoxypiperidine-1-sulfonyl)-5H-pyrrolo[2,3-b]pyrazin-6-amine] was tested. Which pEC50 did it give?
Its pEC50 is 6.31.

With N#Cc1ccc(S(=O)(=O)c2c(N)n(C3CCCCC3)c3nccnc23)cc1 [Example 113, 4-{6-amino-5-cyclohexyl-5H-pyrrolo[2,3-b]pyrazine-7-sulfonyl}benzonitrile] as the compound, how does the pEC50 read?
Its pEC50 is 6.31.

With CCCCn1c(N)c(S(=O)(=O)c2ccccc2)c2nccnc21 [Example 45, 5-butyl-7-5(phenylsulfonyl)-5H-pyrrolo[2,3-b]pyrazin-6-amine] as the compound, how does the pEC50 read?
The pEC50 was 5.54.

How did the pEC50 turn out when Nc1c(S(=O)(=O)N2CCCOCC2)c2nccnc2n1C1CCCCC1 [Example 72, 5-cyclohexyl-7-(1,4-oxazepane-4-sulfonyl)-5H-pyrrolo[2,3-b]pyrazin-6-amine] was run?
Its pEC50 is 5.75.

COC1CCN(S(=O)(=O)c2c(N)n(C3CCCCC3)c3nccnc23)C1 (centres unmarked) [Example 91, 5-cyclohexyl-7-(3-methoxypyrrolidine-1-sulfonyl)-5H-pyrrolo[2,3-b]pyrazin-6-amine] was tested. Which pEC50 did it give?
The pEC50 was 5.08.

How did the pEC50 turn out when Cc1ccc(S(=O)(=O)c2c(N)n(C3CCCCCC3)c3nccnc23)cc1 [Example 2, 5-cycloheptyl-7-[(4-methylbenzene)sulfonyl]-5H-pyrrolo[2,3-b]pyrazin-6-amine] was run?
Its pEC50 is 6.66.

With Nc1c(S(=O)(=O)c2ccccc2)c2nccnc2n1CCc1ccccc1 [Example 46, 5-phenethyl-7-(phenylsulfonyl)-5H-pyrrolo[2,3-b]pyrazin-6-amine] as the compound, how does the pEC50 read?
The pEC50 was 5.28.

How did the pEC50 turn out when Nc1c(S(=O)(=O)C2CCCCC2)c2nccnc2n1C1CCCCC1 [Example 12, 7-(cyclohexanesulfonyl)-5-cyclohexyl-5-pyrrolo[2,3-b]pyrazin-6-amine] was run?
The pEC50 was 6.17.

How did the pEC50 turn out when COc1nccc2c(S(=O)(=O)c3ccccc3)c(N)n(C3CCCCC3)c12 [Example 36, 3-(benzenesulfonyl)-1-cyclohexyl-7-methoxy-1-pyrrolo[2,3-c]pyridin-2-amine] was run?
The pEC50 was 6.61.

COc1ccc(S(=O)(=O)c2c(N)n(C3CCC(F)(F)CC3)c3cccnc23)cc1 [Example 22, 1-(4,4-difluorocyclohexyl)-3-[(4-methoxybenzene)sulfonyl]-1H-pyrrolo[3,2-b]pyridin-2-amine] was tested. Which pEC50 did it give?
Its pEC50 is 6.78.

How did the pEC50 turn out when Nc1c(S(=O)(=O)c2ccccc2)c2cc(Cl)nnc2n1C1CCCCC1 [Example 27, 5-(benzenesulfonyl)-3-chloro-7-cyclohexyl-7H-pyrrolo[2,3-c]pyridazin-6-amine] was run?
The pEC50 was 6.56.

How did the pEC50 turn out when Cc1ccc(S(=O)(=O)c2c(N)n(C3CCCC3)c3nccnc23)cc1 [Example 4, 5-cyclopentyl-7-[(4-methylbenzene)sulfonyl]-5H-pyrrolo[2,3-b]pyrazin-6-amine] was run?
The pEC50 was 6.04.

How did the pEC50 turn out when Nc1c(S(=O)(=O)c2ccccc2)c2nccnc2n1CCC1CCC1 [Example 50, 5-(2-cyclobutylethyl)-7-(phenylsulfonyl)-5H-pyrrolo[2,3-b]pyrazin-6-amine] was run?
The pEC50 was 6.12.

Nc1c(S(=O)(=O)NCc2ccccc2)c2nccnc2n1C1CCCCC1 [Example 70, 6-amino-N-benzyl-5-cyclohexyl-5H-pyrrolo[2,3-b]pyrazine-7-sulfonamide] was tested. Which pEC50 did it give?
Its pEC50 is 5.48.

Nc1c(S(=O)(=O)C2CC2)c2nccnc2n1C1CCCCC1 [Example 109, 5-cyclohexyl-7-(cyclopropanesulfonyl)-5H-pyrrolo[2,3-b]pyrazin-6-amine] was tested. Which pEC50 did it give?
The pEC50 was 5.54.

How did the pEC50 turn out when Nc1c(S(=O)(=O)N2CCCC2)c2nccnc2n1C1CCCCC1 [Example 58, 5-cyclohexyl-7-(pyrrolidin-1-ylsulfonyl)-5H-pyrrolo[2,3-b]pyrazin-6-amine] was run?
The pEC50 was 5.65.

CC1CCCN1S(=O)(=O)c1c(N)n(C2CCCCC2)c2nccnc12 (centres unmarked) [Example 68, 5-cyclohexyl-7-((2-methylpyrrolidin-1-yl)sulfonyl)-5H-pyrrolo[2,3-b]pyrazin-6-amine] was tested. Which pEC50 did it give?
Its pEC50 is 5.83.

How did the pEC50 turn out when Nc1c(S(=O)(=O)NCCC(F)(F)F)c2nccnc2n1C1CCCCC1 [Example 82, 6-amino-5-cyclohexyl-N-(3,3,3-trifluoropropyl)-5H-pyrrolo[2,3-b]pyrazine-7-sulfonamide] was run?
Its pEC50 is 6.09.

How did the pEC50 turn out when Nc1c(S(=O)(=O)c2ccccc2)c2nccnc2n1CCC1CC1 [Example 48, 5-(2-cyclopropylethyl)-7-(phenylsulfonyl)-5H-pyrrolo[2,3-b]pyrazin-6-amine] was run?
Its pEC50 is 5.49.

How did the pEC50 turn out when Nc1c(S(=O)(=O)N2CCC(c3ccccc3)CC2)c2nccnc2n1C1CCCCC1 [Example 83, 5-cyclohexyl-7-(4-phenylpiperidine-1-sulfonyl)-5H-pyrrolo[2,3-b]pyrazin-6-amine] was run?
Its pEC50 is 6.03.

CCC1(Cn2c(N)c(S(=O)(=O)c3ccccc3)c3nccnc32)CC1 [Example 55, 5-((1-ethylcyclopropyl)-methyl)-7-(phenylsulfonyl)-5H-pyrrolo[2,3-b]pyrazin-6-amine] was tested. Which pEC50 did it give?
The pEC50 was 5.14.

With COc1cccc(S(=O)(=O)c2c(N)n(C3CCCCC3)c3nccnc23)c1 [Example 112, 5-cyclohexyl-7-[(3-methoxybenzene)-sulfonyl]-5H-pyrrolo[2,3-b]pyrazin-6-amine] as the compound, how does the pEC50 read?
Its pEC50 is 6.53.

Nc1c(S(=O)(=O)c2ccccc2F)c2nccnc2n1C1CCCCC1 [Example 111, 5-cyclohexyl-7-[(2-fluorobenzene)sulfonyl]-5H-pyrrolo[2,3-b]pyrazin-6-amine] was tested. Which pEC50 did it give?
Its pEC50 is 6.68.

How did the pEC50 turn out when Nc1c(S(=O)(=O)NCC2COC2)c2nccnc2n1C1CCCCC1 [Example 80, 6-amino-5-cyclohexyl-N-(oxetan-3-ylmethyl)-5H-pyrrolo[2,3-b]pyrazine-7-sulfonamide] was run?
Its pEC50 is 5.22.

CCCN(C)S(=O)(=O)c1c(N)n(C2CCCCC2)c2nccnc12 [Example 60, 6-amino-5-cyclohexyl-N-methyl-N-propyl-5H-pyrrolo[2,3-b]pyrazine-7-sulfonamide] was tested. Which pEC50 did it give?
Its pEC50 is 5.85.

How did the pEC50 turn out when CC(C)(C)CCn1c(N)c(S(=O)(=O)c2ccccc2)c2nccnc21 [Example 52, 5-(3,3-dimethylbutyl)-7-(phenylsulfonyl)-5H-pyrrolo[2,3-b]pyrazin-6-amine] was run?
Its pEC50 is 6.09.

How did the pEC50 turn out when CC1CCCN(S(=O)(=O)c2c(N)n(C3CCCCC3)c3nccnc23)C1 (centres unmarked) [Example 102, 5-cyclohexyl-7-(3-methylpiperidine-1-sulfonyl)-5H-pyrrolo[2,3-b]pyrazin-6-amine] was run?
The pEC50 was 6.59.

With Nc1c(S(=O)(=O)NCC2CCC2)c2nccnc2n1C1CCCCC1 [Example 74, 6-amino-N-(cyclobutylmethyl)-5-cyclohexyl-5H-pyrrolo[2,3-b]pyrazine-7-sulfonamide] as the compound, how does the pEC50 read?
Its pEC50 is 6.49.
